According to patent US5733913A, “6-Aryl pyrido[2,3-d] pyrimidines and naphthyridines for inhibiting protein tyrosine kinase mediated cellular proliferation” (priority 1995, dated 1998):
Read-outs that look alike come from different tables or passages of the source.

Tests used:
C-src kinase = target: T1, C-src kinase (Homo sapiens, UniProt P12931); assay: C-src kinase assay; type: biochemical; settings: for inhibition at 50 µM: read-out: Inhibition of Protein Tyrosine Kinases, C-src, % Inhibition; for IC50: read-out: Inhibition of Protein Tyrosine Kinases, C-src, IC50
T1 construct: made in house; host or cells: baculovirus-infected insect cells
Experimental: (§1) V-src and C-src Kinase Assays
V-src or C-src kinase is purified from baculovirus infected insect cell lysates using an antipeptide monoclonal antibody directed against the N-terminal 2-17 amino acids. The antibody, covalently linked to 0.65-μm latex beads, is added to a suspension of insect cell lysis buffer comprised of 150 mM NaCl, 50 mM Tris pH 7.5, 1 mM DTT, 1% NP-40, 2 mM EGTA, 1 mM sodium vanadate, 1 mM PMSF, 1 μg/mL each of leupeptin, pepstatin, and aprotinin. […] At the end of the lysate incubation, the beads are rinsed 3 times in lysis buffer, resuspended in lysis buffer containing 10% glycerol, and frozen. These latex beads are thawed, rinsed three times in assay buffer which is comprised of 40 mM tris pH 7.5, 5 mM MgCl2, and suspended in the same buffer. In a Millipore 96-well plate with a 0.65 μm polyvinylidine membrane bottom are added the reaction components: 10-μL v-src or c-src beads, 10 μL of 2.5 mg/mL poly GluTyr substrate, 5 μM ATP containing 0.2 μCi labeled ^32 P-ATP, 5μL DMSO containing inhibitors or as a solvent control, and buffer to make the final volume 125 μL. The reaction is started at room temperature by addition of the ATP and quenched 10 minutes later by the addition of 125 μL of 30% TCA, 0.1M sodium pyrophosphate for 5 minutes on ice. The plate is then filtered and the wells washed with two 250-μL aliquots of 15% TCA, 0.1M pyrophosphate. The filters are punched, counted in a liquid scintillation counter, and the data examined for inhibitory activity in comparison to a known inhibitor such as erbstatin. The method is described more fully in J. Med. Chem., 37:598-609 (1994).

V-src kinase = V-src kinase assay; type: biochemical; settings: at 50 μM
Experimental: as §1
V-src or C-src kinase is purified from baculovirus infected insect cell lysates using an antipeptide monoclonal antibody directed against the N-terminal 2-17 amino acids. The antibody, covalently linked to 0.65-μm latex beads, is added to a suspension of insect cell lysis buffer comprised of 150 mM NaCl, 50 mM Tris pH 7.5, 1 mM DTT, 1% NP-40, 2 mM EGTA, 1 mM sodium vanadate, 1 mM PMSF, 1 μg/mL each of leupeptin, pepstatin, and aprotinin. Insect cell lysate containing either the c-src or v-src protein is incubated with these beads for 3-4 hours at 4° C. with rotation. At the end of the lysate incubation, the beads are rinsed 3 times in lysis buffer, resuspended in lysis buffer containing 10% glycerol, and frozen. These latex beads are thawed, rinsed three times in assay buffer which is comprised of 40 mM tris pH 7.5, 5 mM MgCl2, and suspended in the same buffer. In a Millipore 96-well plate with a 0.65 μm polyvinylidine membrane bottom are added the reaction components: 10-μL v-src or c-src beads, 10 μL of 2.5 mg/mL poly GluTyr substrate, 5 μM ATP containing 0.2 μCi labeled ^32 P-ATP, 5μL DMSO containing inhibitors or as a solvent control, and buffer to make the final volume 125 μL. The reaction is started at room temperature by addition of the ATP and quenched 10 minutes later by the addition of 125 μL of 30% TCA, 0.1M sodium pyrophosphate for 5 minutes on ice. The plate is then filtered and the wells washed with two 250-μL aliquots of 15% TCA, 0.1M pyrophosphate. The filters are punched, counted in a liquid scintillation counter, and the data examined for inhibitory activity in comparison to a known inhibitor such as erbstatin. The method is described more fully in J. Med. Chem., 37:598-609 (1994).

[1] = target: T2, human FGF-1 (flg) receptor tyrosine kinase (Homo sapiens, UniProt P11362); assay: FGF receptor tyrosine kinase assay; type: biochemical; settings: for IC50: read-out: Inhibition of Protein Tyrosine Kinases, FGF, IC50; for inhibition at 50 µM: read-out: Inhibition of Protein Tyrosine Kinases, FGF, % Inhibition
T2 construct: a fragment of DNA that codes for the intracellular tyrosine kinase domain; made in house; host or cells: Sf9 insect cells (baculovirus), cell lysate
From the text: (§2) PDGF and FGF Receptor Tyrosine Kinase Assays
(§3) Full length cDNAs for the mouse PDGF-β and human FGF-1 (flg) receptor tyrosine kinases were obtained from J. Escobedo and prepared as described in J. Biol. Chem., 262:1482-1487 (1991), and PCR primers were designed to amplify a fragment of DNA that codes for the intracellular tyrosine kinase domain. The fragment was melded into a baculovirus vector, cotransfected with AcMNPV DNA, and the recombinant virus isolated. SF9 insect cells were infected with the virus to overexpress the protein, and the cell lysate was used for the assay. […] Briefly, to each well was added 82.5 μL of incubation buffer containing 25 mM Hepes (pH 7.0), 150 mM NaCl, 0.1% Triton X-100, 0.2 mM PMSF, 0.2 mM Na3 VO4, 10 mM MnCl2, and 750 μg/mL of Poly (4:1) glutamate-tyrosine followed by 2.5 μL of inhibitor and 5 μL of enzyme lysate (7.5 μg/μL FGF-TK or 6.0 μg/μL PDGF-TK) to initiate the reaction. Following a 10 minute incubation at 25° C., 10 μL of γ^32 P-ATP (0.4 μCi plus 50 μM ATP) was added to each well and samples were incubated for an additional 10 minutes at 25° C. The reaction was terminated by the addition of 100 μL of 30% trichloroacetic acid (TCA) containing 20 mM sodium pyrophosphate and precipitation of material onto glass fiber filter mats (Wallac). […] Nonspecific activity was defined as radioactivity retained on the filters following incubation of samples with buffer alone (no enzyme). Specific enzymatic activity was defined as total activity (enzyme plus buffer) minus nonspecific activity.

[2] = target: T3, mouse PDGF-β receptor tyrosine kinase (Mus musculus, UniProt P05622); assay: PDGF receptor tyrosine kinase assay; type: biochemical; settings: for IC50: read-out: Inhibition of Protein Tyrosine Kinases, PDGF, IC50; for inhibition at 50 µM: read-out: Inhibition of Protein Tyrosine Kinases, PDGF, % Inhibition
T3 construct: a fragment of DNA that codes for the intracellular tyrosine kinase domain; made in house; host or cells: Sf9 insect cells (baculovirus), cell lysate
From the text: as §2, §3

PDGF receptor = PDGF receptor autophosphorylation in RASMC; type: cell-based, rat; settings: PDGF-BB 30 ng/mL, read-out: Inhibition of PDGF Stimulated Receptor Auto Phosphorylation (IC50)

T1 sequence (P12931 whole entry): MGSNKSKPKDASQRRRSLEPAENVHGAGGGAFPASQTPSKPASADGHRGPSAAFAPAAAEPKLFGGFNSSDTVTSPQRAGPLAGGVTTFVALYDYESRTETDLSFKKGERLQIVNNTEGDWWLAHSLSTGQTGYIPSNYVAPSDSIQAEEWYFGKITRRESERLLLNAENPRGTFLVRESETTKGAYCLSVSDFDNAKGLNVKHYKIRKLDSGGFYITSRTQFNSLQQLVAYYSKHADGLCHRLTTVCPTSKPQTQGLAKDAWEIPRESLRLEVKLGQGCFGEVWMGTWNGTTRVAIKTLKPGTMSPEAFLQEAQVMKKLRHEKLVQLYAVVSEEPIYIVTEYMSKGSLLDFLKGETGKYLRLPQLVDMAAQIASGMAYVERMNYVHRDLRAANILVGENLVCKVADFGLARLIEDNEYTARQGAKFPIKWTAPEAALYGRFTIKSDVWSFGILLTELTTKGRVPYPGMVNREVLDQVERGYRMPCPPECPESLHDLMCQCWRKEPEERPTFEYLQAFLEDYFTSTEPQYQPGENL
T2 sequence (P11362 478-767 limits assumed): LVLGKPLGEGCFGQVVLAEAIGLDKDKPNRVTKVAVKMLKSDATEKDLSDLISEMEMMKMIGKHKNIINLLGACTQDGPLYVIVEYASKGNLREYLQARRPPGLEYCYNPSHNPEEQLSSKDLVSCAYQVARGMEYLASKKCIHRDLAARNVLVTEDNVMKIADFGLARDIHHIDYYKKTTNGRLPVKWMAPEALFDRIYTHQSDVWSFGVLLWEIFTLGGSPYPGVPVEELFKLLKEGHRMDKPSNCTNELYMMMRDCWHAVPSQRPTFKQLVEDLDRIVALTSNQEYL
T3 sequence (P05622 599-961 limits assumed): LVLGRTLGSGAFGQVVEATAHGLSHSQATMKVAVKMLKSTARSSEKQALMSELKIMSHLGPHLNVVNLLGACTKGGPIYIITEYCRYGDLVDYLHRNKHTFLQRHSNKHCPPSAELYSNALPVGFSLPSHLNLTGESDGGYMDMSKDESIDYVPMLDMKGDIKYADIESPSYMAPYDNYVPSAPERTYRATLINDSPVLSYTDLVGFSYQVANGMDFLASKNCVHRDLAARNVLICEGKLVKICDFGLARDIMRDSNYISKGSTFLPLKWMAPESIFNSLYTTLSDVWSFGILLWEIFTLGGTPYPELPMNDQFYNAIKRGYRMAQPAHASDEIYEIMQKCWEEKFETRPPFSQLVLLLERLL

IC50 (C-src kinase) | IC50 (PDGF receptor) | SMILES | inhibition at 50 µM (C-src kinase; at 50 μM) | Inhibition of Protein Tyrosine Kinases, V-src, % Inhibition (V-src kinase) | IC50 [1] | IC50 [2] | inhibition at 50 µM [2] | inhibition at 50 µM [1] | inhibition at 50 µM (C-src kinase)
– | – | Nc1ncc2cc(-c3ccccc3)c(N)nc2n1 [Example 81, 6-Phenyl-pyrido[2,3-d]pyrimidine-2,7-diamine] | 67.5% | -20.3% | – | – | – | – | –
– | – | Nc1ncc2cc(-c3c(Cl)cccc3Cl)c(N)nc2n1 [Example 1, 2,7-Diamino-6-(2,6-dichlorophenyl)-pyrido[2,3-d]pyrimidine] | – | -2.4% | 2.99 µM | – | – | – | –
– | – | Nc1ncc2cc(-c3cccc(Cl)c3Cl)c(N)nc2n1 [Example 83, 6-(2,3-Dichlorophenyl)-pyrido[2,3-d]pyrimidine-2,7-diamine] | 53.6% | -9.8% | 1.98 µM | 42.5 µM | – | – | –
– | – | COc1cccc(-c2cc3cnc(N)nc3nc2N)c1 [Example 102, 6-(3-Methoxy-phenyl)-pyrido[2,3-d]pyrimidine-2,7-diamine] | 0.8% | -8.2% | 3.11 µM | – | 44.4% | – | –
– | – | Cc1cccc(-c2cc3cnc(N)nc3nc2N)c1C [Example 92, 6-(2,3-Dimethyl-phenyl)-pyrido[2,3-d]pyrimidine-2,7-diamine] | 44.5% | -10.1% | 2.01 µM | – | 33.1% | – | –
1.56 µM | 9.42 µM | CCNC(=O)Nc1nc2nc(NCCN(CC)CC)ncc2cc1-c1c(Cl)cccc1Cl [Example 67, 1-[6-(2,6-Dichlorophenyl)-2-(2-diethylamino-ethyl-amino)-pyrido[2,3-d]pyrimidin-7-yl]-3-ethyl-urea] | – | – | 1.39 µM | – | – | – | –
– | – | Nc1ncc2cc(-c3cccnc3)c(N)nc2n1 [Example 107, 6-Pyridin-3-yl-pyrido[2,3-d]pyrimidine-2,7-diamine] | 37% | 1.4% | – | – | 20.5% | 37.2% | –
– | – | CNc1nc2nc(N)ncc2cc1-c1ccc(OC)cc1 [Example 13, 6-(4-Methoxyphenyl)-N^7-methyl-pyrido[2,3-d]pyrimidine-2,7-diamine] | 15.9% | 21.2% | 30.3 µM | – | 18.2% | – | –
– | – | Nc1ncc2cc(-c3ccccn3)c(N)nc2n1 [Example 111, 6-Pyridin-2-yl-pyrido[2,3-d]pyrimidine-2,7-diamine] | 15.7% | -26.4% | – | 23.3 µM | – | 47.7% | –
0.184 µM | – | CN1CCN(CCCNc2ncc3cc(-c4c(Cl)cccc4Cl)c(N)nc3n2)CC1 [Example 36, N^2-[3-(4-methyl-piperazin-1-yl)-propyl]-6-(2,6-dichlorophenyl)-pyrido[2,3-d]pyrimidine-2,7-diamine] | – | – | 0.523 µM | 22.9 µM | – | – | –
0.236 µM | – | CCCS(=O)(=O)Nc1nc2nc(N)ncc2cc1-c1c(Cl)cccc1Cl [Example 106, Propane-1-sulfonic acid [2-amino-6-(2,6-dichlorophenyl)-pyrido[2,3-d]pyrimidin-7-yl]-amide] | – | – | 0.361 µM | 4.8 µM | – | – | –
– | 15.9 µM | CCN(CC)CCCNc1ncc2cc(-c3c(C)cccc3C)c(N)nc2n1 [Example 114, N^2-(3-Diethylamino-propyl)-6-(2,6-dimethyl-phenyl)-pyrido[2,3-d]pyrimidine-2,7-diamine] | – | – | 19.2 µM | 23.9 µM | – | – | –
– | – | Cc1cc(C)c(-c2cc3cnc(N)nc3nc2NC(=O)NC(C)(C)C)c(C)c1 [Example 97, 1-[2-Amino-6-(2,4,6-trimethyl-phenyl)-pyrido[2,3-d]pyrimidin-7-yl]-3-tert-butyl-urea] | – | – | 0.34 µM | 1.73 µM | – | – | 28.9%
– | – | CN(C)CC(C)(C)CNc1ncc2cc(-c3c(Cl)cccc3Cl)c(NC(=O)NC(C)(C)C)nc2n1 [Example 30, 1-tert-Butyl-3-[6-(2,6-dichlorophenyl)-2-[3-dimethylamino-2,2-dimethyl-propylamino)-pyrido[2,3-d]pyrimidin-7-yl]-urea] | 46.8% | – | 0.264 µM | 1.78 µM | – | – | –
– | – | CCN(CC)CCNc1ncc2cc(-c3c(Cl)cccc3Cl)c(N)nc2n1 [Example 65, 6-(2,6-Dichlorophenyl)-N^2-(2-diethylamino-ethyl)-pyrido[2,3-d]pyrimidine-2,7-diamine] | 95% | – | 17 µM | – | 29.6% | – | –
– | – | CC(C)(C)NC(=O)Nc1nc2nc(N)ncc2cc1-c1c(F)cccc1F [Example 87, 1-[2-Amino-6-(2,6-difluoro-phenyl)-pyrido[2,3-d]pyrimidin-7-yl]-3-tert-butyl-urea] | – | – | 0.118 µM | 1.88 µM | – | – | 92.7%
0.26 µM | – | CN1CCN(CCCNc2ncc3cc(-c4c(Cl)cccc4Cl)c(NC(=O)Nc4ccc(C(F)(F)F)cc4)nc3n2)CC1 [Example 48, 1-{6-(2,6-Dichlorophenyl)-2-[3-(4-methyl-piperazin-1-yl)-propylamino]-pyrido[2,3-d]pyrimidin-7-yl}-3-(4-trifluoromethyl-phenyl)-urea] | – | – | 0.613 µM | 5.32 µM | – | – | –
– | – | COc1ccccc1-c1cc2cnc(N)nc2nc1N [Example 100, 6-(2-Methoxy-phenyl)-pyrido[2,3-d]pyrimidine-2,7-diamine] | 46.6% | 6.0% | – | – | 22.3% | 27.1% | –

SMILES | IC50 (C-src kinase) | IC50 (PDGF receptor) | inhibition at 50 µM (C-src kinase; at 50 μM) | Inhibition of Protein Tyrosine Kinases, V-src, % Inhibition (V-src kinase) | IC50 [1] | IC50 [2] | inhibition at 50 µM [2] | inhibition at 50 µM [1] | inhibition at 50 µM (C-src kinase)
CCN(CC)CCCNc1ncc2cc(-c3c(Cl)cccc3Cl)c(N)nc2n1 [Example 20, 7-Amino-6-(2,6-dichlorophenyl)-2-(3-diethylamino-propylamino)-pyrido[2,3-d]pyrimidine] | 0.748 µM | – | – | 51.7% | 2.38 µM | 46.1 µM | – | – | –
